From PubChem BioAssay AID652187 (Sanford-Burnham Center for Chemical Genomics, 2013)
Calls of active or inactive are those of the source.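 The calls were made as follows: active = IC50 of 25 µM or lower, counted as toxic to worms; inactive = the rest.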

Tested on: C. elegans VP596 worms, composite health score, 20-22 h
Experiment: C. elegans worm health toxicity scoring, SAR follow-up, cytotoxicity control for SKN-1 inhibitor project, whole organism, strain VP596, composite health score, round 1 (AID 652187)

Compound	IC50
Cc1ccc(-c2csc(-c3ccncc3)n2)cc1	> 64 µM (inactive)
Clc1ccc(-c2csc(-c3ccncc3)n2)cc1	< 64 µM (inactive)
CCOc1cc(CNC2CCCC2)cc(Cl)c1OCc1ccccc1F	> 64 µM (inactive)
CCOc1cc(CNC2CCC2)cc(Cl)c1OCc1ccc(F)cc1	> 64 µM (inactive)
CCOc1cc(CNCc2ccccc2)cc(Cl)c1OCc1ccc(F)cc1	> 64 µM (inactive)
CCOc1cc(C(=O)NC2CCCC2)cc(Cl)c1OCc1ccc(F)cc1	> 64 µM (inactive)
Fc1ccc(-c2csc(-c3cccnc3)n2)cc1	> 64 µM (inactive)
c1ccc(-c2csc(-c3cccnc3)n2)cc1	63.3 µM (inactive)
CCOc1cc(CNC2CCCCC2)cc(Cl)c1OCc1ccc(F)cc1	> 64 µM (inactive)
CCOc1cc(CNC2CCCC2)cc(Cl)c1OCc1cccc(F)c1	> 64 µM (inactive)
CCOc1cc(CNC2CCCC2)cc(Cl)c1OCc1ccc(Cl)cc1	> 64 µM (inactive)
Fc1ccc(-c2csc(-c3ccncc3)n2)cc1	> 64 µM (inactive)
COc1ccc(-c2csc(-c3ccncc3)n2)cc1	> 64 µM (inactive)
CCOc1cc(CNc2ccccc2)cc(Cl)c1OCc1ccc(F)cc1	> 64 µM (inactive)
COc1ccc(-c2csc(-c3cccnc3)n2)cc1	> 64 µM (inactive)
CCOc1cc(CNC2CCCC2)cc(Cl)c1OCc1ccc(C)cc1	> 64 µM (inactive)
CCOc1cc(CNC2CCCC2)cc(Cl)c1OCc1ccccc1Cl	> 64 µM (inactive)
Cc1ccc(-c2csc(-c3cccnc3)n2)cc1	61.1 µM (inactive)
CCOc1cc(CNC2CCCC2)cc(Cl)c1OCc1ccc(OC)cc1	> 64 µM (inactive)
CCOc1cc(CNC(C)C)cc(Cl)c1OCc1ccc(F)cc1	> 64 µM (inactive)
CCOc1cc(CNC2CCCC2)cc(Cl)c1OC	> 64 µM (inactive)
CCOc1cc(CNC2CCCC2)cc(Cl)c1OCc1ccc(F)cc1	> 64 µM (inactive)
Fc1ccc(COc2ccc(CNC3CCCC3)cc2Cl)cc1	> 64 µM (inactive)
CCOc1cc(CNC2CC2)cc(Cl)c1OCc1ccc(F)cc1	> 64 µM (inactive)
CCOc1cc(CNC2CCCC2)ccc1OCc1ccc(F)cc1	> 64 µM (inactive)
COc1cc(CNC2CCCC2)cc(Cl)c1OCc1ccc(F)cc1	> 64 µM (inactive)
c1ccc(-c2csc(-c3ccncc3)n2)cc1	> 64 µM (inactive)
Clc1ccc(-c2csc(-c3cccnc3)n2)cc1	> 64 µM (inactive)
